Patent publication US9422240B2, “Partially saturated nitrogen-containing heterocyclic compound” (TAISHO PHARMACEUTICAL CO., LTD, priority 2012, dated 2016)

What was measured:
[1] = molecular target: T1, human PHD2 (Homo sapiens (Human), UniProt Q9GZT9); test: Test 1: human PHD2 inhibitory activity, [14C]-2-oxoglutarate to [14C]-succinic acid radiometric assay with HIF-1α peptide; type: biochemical; conditions: test compound's concentration 1 μM; Test 1, [14C]-2-oxoglutarate radiometric assay; read-out: Percent inhibition (% at 1 μM)
Method: (1) Expression and Preparation of Human PHD2
Human PHD2 was expressed in insect cells (HighFive cells). A registered sequence of human PHD2 (NM_022051) was introduced into the pFastBacl vector (Invitrogen), and the sequence was verified. The vector was introduced into Sf9 insect cells (Invitrogen) to acquire human PHD2 baculovirus. HighFive insect cells (Invitrogen) were infected with this recombinant virus and cultured at 27° C. for 72 hours; thereafter, a cell lysis solution containing various protease inhibitors was added and the cells were disrupted to form a suspension. The suspension of disrupted cells was centrifuged at 4° C. and 100,000×g for 30 minutes and the supernatant was recovered as a cell lysate.
(2) Measurement of Human PHD2 Inhibitory Activity
The activity of human PHD2 enzyme was measured with a substrate which is a 19-residue partial peptide based on the sequence of HIF-1α. Specifically, the conversion of 2-oxoglutarate to succinic acid which would occur simultaneously with the hydroxylation of a proline residue in the peptide with the PHD2 enzyme was utilized. To be more specific, [^14C]-2-oxogiutarate was added to the reaction system to initiate an enzymatic reaction and the [^14C]-2-oxoglutarate remaining after the reaction was bound to 2,4-dinitrophenylhydrazine (DNPH), with the resulting precipitate being removed by passage through a filter. Subsequently, radiation counting was conducted on the resulting [^14C]-succinic acid.
A test compound, HIF-1αpeptide and [^14C]-2-oxoglutarate were preliminarily added onto 96-well plates and reaction was initiated by adding a human PHD2 enzyme solution (4 μg/well). After 15-min incubation at 37° C., a DNPH-containing quench solution was added and the mixture was allowed to stand at room temperature for 30 minutes. Thereafter, an excess of non-radiolabelled 2-oxoglutarate was added and the mixture was allowed to stand at room temperature for 60 minutes. The resulting precipitate was removed by passage through a filter and the radiation count on the [^14C]-succinic acid was quantified (with MicroBeta). Radiation counting was conducted for each well and the human PHD2 inhibitory activity of each test compound was calculated on the basis of the values for the substrate-free group and the test compound-free group.

[2] = molecular target: T1, human PHD2; test: Test 2: human PHD2 inhibitory activity, fluorescence polarization assay of HIF-1α peptide proline hydroxylation; type: biochemical; conditions: test compound's concentration 1 μM; Test 2, fluorescence polarization assay; read-out: Percent inhibition (% at 1 μM)
How it was run: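 A 19-mer HIF-1α peptide served as substrate, with the reaction started by 40 ng/well human PHD2 (cell lysate of NM_022051-transfected cells) and run 20 min at 30° C. before EDTA stop. Hydroxylated product bound anti-HIF-OH antibody, read by fluorescence polarization versus no-compound control.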

T1 sequence (Q9GZT9 whole entry): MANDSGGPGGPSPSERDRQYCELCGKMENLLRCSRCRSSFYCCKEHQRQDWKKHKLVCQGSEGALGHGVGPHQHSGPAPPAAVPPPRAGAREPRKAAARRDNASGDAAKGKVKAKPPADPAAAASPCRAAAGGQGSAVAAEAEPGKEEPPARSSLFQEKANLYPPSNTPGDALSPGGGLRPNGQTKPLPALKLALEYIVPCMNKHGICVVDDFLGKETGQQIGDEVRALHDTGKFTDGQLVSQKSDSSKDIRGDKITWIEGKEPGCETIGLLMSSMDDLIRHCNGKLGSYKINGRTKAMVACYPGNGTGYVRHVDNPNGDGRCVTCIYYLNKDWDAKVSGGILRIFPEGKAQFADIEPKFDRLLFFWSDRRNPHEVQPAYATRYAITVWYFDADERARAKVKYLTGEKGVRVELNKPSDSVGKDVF

Row | SMILES | inhibition at 1 µM [1] | inhibition at 1 µM [2]
1 | CC1(C)CC(O)=C(C(=O)NCC(=O)O)C(=O)N1Cc1cnc(-c2ccccc2)s1 [Ex. 1-96] | 82% | 86%
2 | O=C(O)CNC(=O)C1=C(O)CC2(CCOCC2)N(Cc2cnc(-c3ccccc3)s2)C1=O [Ex. 1-98] | 88% | 88%
3 | CC1CC(O)=C(C(=O)NCC(=O)O)C(=O)N1Cc1ccc(-c2ccc(C(F)(F)F)cc2)cc1 (stereo not drawn) [Ex. 1-100] | 64% | 84%
4 | O=C(O)CNC(=O)C1=C(O)C2(CCCCC2)CN(Cc2ccc(-c3ccccn3)cc2)C1=O [Ex. 1-101] | 60% | 86%
5 | O=C(O)CNC(=O)C1=C(O)C2(CCC2)CN(Cc2ccc(-c3ccccn3)cc2)C1=O [Ex. 1-102] | 67% | 83%
6 | O=C(O)CNC(=O)C1=C(O)CC2(CCOCC2)N(Cc2ccc(-c3ccccn3)cc2)C1=O [Ex. 1-105] | 78% | 83%
7 | O=C(O)CNC(=O)C1=C(O)CC2(CCOCC2)N(Cc2ccc(C(F)(F)F)cc2)C1=O [Ex. 1-106] | 66% | 72%
8 | CC1(C)CC(O)=C(C(=O)NCC(=O)O)C(=O)N1Cc1ccc(-c2ccccn2)cc1 [Ex. 1-109] | 70% | 77%
9 | O=C(O)CNC(=O)C1=C(O)C2(CCOCC2)CN(Cc2ccc(-c3ccccn3)cc2)C1=O [Ex. 1-110] | 82% | 84%
10 | O=C(O)CNC(=O)C1=C(O)CC2(CCCCC2)N(Cc2ccc(-c3ccccn3)cc2)C1=O [Ex. 1-111] | 68% | 80%
11 | O=C(O)CNC(=O)C1=C(O)CC2(CCCCC2)N(Cc2cnc(-c3ccccc3)s2)C1=O [Ex. 1-112] | 68% | 90%
12 | O=C(O)CNC(=O)C1=C(O)CCN(Cc2ccc(C(F)(F)F)c(F)c2)C1=O [Ex. 1-113] | 79% | 84%
13 | CC1(C)CC(O)=C(C(=O)NCC(=O)O)C(=O)N1Cc1ccc(-c2ccc(C(F)(F)F)cc2)cc1 [Ex. 1-118] | 77% | 87%

Next, values leading:

Row | inhibition at 1 µM [1] | inhibition at 1 µM [2] | SMILES
14 | 85% | 94% | O=C(O)CNC(=O)C1=C(O)C2(CCCCC2)CN(Cc2cnc(-c3ccccc3)s2)C1=O [Ex. 1-91]
15 | 69% | 66% | Cc1ccc(CN2CC(C)C(O)=C(C(=O)NCC(=O)O)C2=O)cc1 (stereo not drawn) [Ex. 1-92]
16 | 80% | 81% | CC1CN(Cc2ccc(-c3ccccn3)cc2)C(=O)C(C(=O)NCC(=O)O)=C1O (stereo not drawn) [Ex. 1-93]
17 | 84% | 92% | CC1CC(O)=C(C(=O)NCC(=O)O)C(=O)N1Cc1cnc(-c2ccccc2)s1 (stereo not drawn) [Ex. 1-94]
18 | 85% | 91% | O=C(O)CNC(=O)C1=C(O)C2(CCC2)CN(Cc2cnc(-c3ccccc3)s2)C1=O [Ex. 1-95]
19 | 89% | 91% | O=C(O)CNC(=O)C1=C(O)C2(CCOCC2)CN(Cc2cnc(-c3ccccc3)s2)C1=O [Ex. 1-97]
20 | 71% | 92% | O=C(O)CNC(=O)C1=C(O)CC2(CCOCC2)N(CC2CCC(c3ccccc3)CC2)C1=O (stereo not drawn) [Ex. 1-99]
21 | 76% | 82% | CC1CN(Cc2ccc(C(F)(F)F)cc2)C(=O)C(C(=O)NCC(=O)O)=C1O (stereo not drawn) [Ex. 1-103]
22 | 87% | 94% | CC1CN(Cc2cnc(-c3ccccc3)s2)C(=O)C(C(=O)NCC(=O)O)=C1O (stereo not drawn) [Ex. 1-104]
23 | 67% | 90% | CC1CN(CC2CCC(c3ccccc3)CC2)C(=O)C(C(=O)NCC(=O)O)=C1O (stereo not drawn) [Ex. 1-107]
24 | 60% | 87% | CC1CN(Cc2ccc(-c3ccc(C(F)(F)F)cc3)cc2)C(=O)C(C(=O)NCC(=O)O)=C1O (stereo not drawn) [Ex. 1-108]
25 | 36% | 83% | O=C(O)CNC(=O)C1=C(O)C2(CCC2)CN(CC2CCC(c3ccccc3)CC2)C1=O (stereo not drawn) [Ex. 1-114]
26 | 49% | 83% | CC1(C)CC(O)=C(C(=O)NCC(=O)O)C(=O)N1CC1CCC(c2ccccc2)CC1 (stereo not drawn) [Ex. 1-115]
27 | 83% | 92% | O=C(O)CNC(=O)C1=C(O)C2(CCOCC2)CN(CC2CCC(c3ccccc3)CC2)C1=O (stereo not drawn) [Ex. 1-117]
